Legend:
[1] = test system: ryegrass, Italian; assay: Test A pre-/postemergence herbicide test; type: in vivo, Lolium multiflorum
Method in brief: (§1)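 Seeds sown in loam soil/sand blend received a preemergence directed soil spray of test chemical in non-phytotoxic solvent with surfactant; postemergence plants (2–10 cm, one- to two-leaf stage) were sprayed with the same formulation. After about 10 days in greenhouse, injury was rated visually versus untreated controls, 0 (no effect) to 100 (complete control).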

[2] = test system: giant foxtail; assay: Test A pre-/postemergence herbicide test; type: in vivo, Setaria faberii
Method in brief: as §1

[3] = test system: wheat; assay: Test A pre-/postemergence herbicide test; type: in vivo, Triticum aestivum; settings: Postemergence
Method in brief: as §1

[4] = test system: barnyardgrass; assay: Test B flooded paddy test; type: in vivo, Echinochloa crus-galli; settings: 500 g ai/ha, Flood; scale of 0 to 100 where 0 is no effect and 100 is complete control
Method in brief: (§2)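 Plants grown to 2-leaf stage; pots flooded 3 cm above soil and compound applied directly into paddy water, depth held throughout. Visual rating against untreated controls after 13 to 15 days in greenhouse, 0 (no effect) to 100 (complete control).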

[5] = test system: rice; assay: Test B flooded paddy test; type: in vivo, Oryza sativa; settings: 500 g ai/ha, Flood; scale of 0 to 100 where 0 is no effect and 100 is complete control
Method in brief: as §2

[6] = test system: ragweed; assay: Test A pre-/postemergence herbicide test; type: in vivo, Ambrosia elatior
Method in brief: as §1

[7] = test system: blackgrass; assay: Test A postemergence herbicide test; type: in vivo, Alopecurus myosuroides
Method in brief: (§3)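 Blackgrass and galium grown in pots of loam soil–sand blend, treated postemergence at 2–10 cm height, one- to two-leaf stage. Plants kept in greenhouse ~10 days, then visually rated for injury against untreated controls on a 0–100 scale (0 no effect, 100 complete control).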

[8] = test system: pigweed; assay: Test A pre-/postemergence herbicide test; type: in vivo, Amaranthus retroflexus
Method in brief: as §1

[9] = test system: barnyardgrass; assay: Test A pre-/postemergence herbicide test; type: in vivo, Echinochloa crus-galli
Method in brief: as §1

[10] = test system: galium; assay: Test A postemergence herbicide test; type: in vivo, Galium aparine
Method in brief: as §3

[11] = test system: kochia; assay: Test A pre-/postemergence herbicide test; type: in vivo, Kochia scoparia
Method in brief: as §1

[12] = test system: sedge, umbrella; assay: Test B flooded paddy test; type: in vivo, Cyperus difformis; settings: 500 g ai/ha, Flood; scale of 0 to 100 where 0 is no effect and 100 is complete control
Method in brief: as §2

[13] = test system: ducksalad; assay: Test B flooded paddy test; type: in vivo, Heteranthera limosa; settings: 500 g ai/ha, Flood; scale of 0 to 100 where 0 is no effect and 100 is complete control
Method in brief: as §2

[14] = test system: corn; assay: Test A pre-/postemergence herbicide test; type: in vivo, Zea mays; settings: Postemergence
Method in brief: as §1

[15] = 125 g ai/ha, visual rating, 0 to 100 scale, 0 no effect, 100 complete control, approximately 10 days, preemergence
[16] = Postemergence, 125 g ai/ha, 0 to 100 scale, 0 is no effect, 100 is complete control
[17] = preemergence, 500 g ai/ha, 0 to 100 scale, 0 is no effect and 100 is complete control
[18] = 125 g ai/ha, 0 to 100 scale, 0 is no effect, 100 is complete control
[19] = Postemergence, 125 g ai/ha, visual rating on 0 to 100 scale (0 no effect, 100 complete control), approx. 10 days
[20] = Postemergence, 500 g ai/ha, 0 to 100 scale (0 no effect, 100 complete control)
[21] = Preemergence, 125 g ai/ha, 0 to 100 scale where 0 is no effect and 100 is complete control
[22] = Preemergence, 500 g ai/ha, visual rating on 0 to 100 scale (0 no effect, 100 complete control)
[23] = 125 g ai/ha, visual rating on 0 to 100 scale (0 no effect, 100 complete control), approx. 10 days
[24] = 500 g ai/ha, 0 to 100 scale (0 no effect, 100 complete control)

O=C1NCC(c2cccc(C3CC3)c2)C1C(=O)Nc1cccc(F)c1F (racemic) [Compound 167]
10: Plant response rating, Rice [5]
50: Wheat plant response rating (0 to 100 scale, 0 is no effect, 100 is complete control) ([3]; 500 g ai/ha) | Ragweed plant response rating (0 to 100 scale, 0 is no effect, 100 is complete control) ([6]; Postemergence, 500 g ai/ha) | Plant response rating, Ragweed [6, 17] | Plant response rating, Blackgrass [7, 18] | Plant response rating, Pigweed [8, 15] | Plant response rating, Pigweed [8, 17] | Plant response rating, Galium [10, 18] | Kochia plant response rating (0 to 100 scale, 0 is no effect, 100 is complete control) ([11]; Postemergence, 500 g ai/ha)
75: Plant response rating, Barnyardgrass [4]
90: Plant response rating, Foxtail, Giant [2, 15] | Plant response rating, Foxtail, Giant [2, 16] | Foxtail, Giant plant response rating (0 to 100 scale, 0 is no effect, 100 is complete control) ([2]; Postemergence, 500 g ai/ha) | Plant response rating, Foxtail, Giant ([2]; preemergence, 500 g ai/ha, 0 to 100 scale) | Plant response rating, Barnyardgrass [9, 15] | Plant response rating, Barnyardgrass [9, 16] | Barnyardgrass plant response rating (0 to 100 scale, 0 is no effect, 100 is complete control) ([9]; Postemergence, 500 g ai/ha) | Plant response rating, Barnyardgrass ([9]; preemergence, 500 g ai/ha, 0 to 100 scale (0 no effect, 100 complete control))
60: Blackgrass plant response rating (0 to 100 scale, 0 is no effect, 100 is complete control) ([7]; 500 g ai/ha) | Galium plant response rating (0 to 100 scale, 0 is no effect, 100 is complete control) ([10]; 500 g ai/ha) | Plant response rating, Kochia [11, 17]
30: Plant response rating, Kochia [11, 16]
70: Plant response rating, Ryegrass, Italian [1, 17] | Corn plant response rating (0 to 100 scale, 0 is no effect, 100 is complete control) ([14]; 500 g ai/ha)
0: Plant response rating, Wheat [3, 18] | Plant response rating, Ragweed [6, 15] | Plant response rating, Pigweed [8, 16] | Pigweed plant response rating (0 to 100 scale, 0 is no effect, 100 is complete control) ([8]; Postemergence, 500 g ai/ha) | Plant response rating, Sedge, Umbrella [12] | Plant response rating, Corn [14, 18]
20: Plant response rating, Ryegrass, Italian [1, 15] | Plant response rating, Ryegrass, Italian [1, 16] | Plant response rating, Ragweed [6, 16] | Plant response rating, Kochia [11, 15]
100: Plant response rating, Ducksalad [13]
40: Ryegrass, Italian plant response rating (0 to 100 scale, 0 is no effect, 100 is complete control) ([1]; Postemergence, 500 g ai/ha)

O=C1NCC(c2ccc(Cl)s2)C1C(=O)Nc1ccccc1C(F)(F)F (stereo not shown) [Compound 293]
90: Plant response rating, Foxtail, Giant [2, 17]
0: Plant response rating, Ryegrass, Italian [1, 19] | Plant response rating, Ryegrass, Italian [1, 20] | Plant response rating, Ryegrass, Italian [1, 21] | Ryegrass, Italian plant response rating [1, 22] | Plant response rating, Wheat [3, 23] | Plant response rating, Wheat [3, 24] | Plant response rating, Rice [5] | Plant response rating, Ragweed [6, 19] | Plant response rating, Ragweed [6, 20] | Plant response rating, Blackgrass [7, 23] | Plant response rating, Pigweed [8, 19] | Plant response rating, Pigweed [8, 20] | Plant response rating, Pigweed [8, 21] | Plant response rating, Pigweed [8, 17] | Plant response rating, Kochia [11, 19] | Plant response rating, Kochia [11, 20] | Plant response rating, Kochia [11, 21] | Plant response rating, Kochia [11, 17] | Plant response rating, Sedge, Umbrella [12] | Plant response rating, Corn [14, 23] | Plant response rating, Corn [14, 24]
50: Plant response rating, Foxtail, Giant [2, 19] | Plant response rating, Barnyardgrass [9, 19]
70: Plant response rating, Foxtail, Giant [2, 20] | Plant response rating, Barnyardgrass [9, 20] | Plant response rating, Barnyardgrass [9, 17]
95: Plant response rating, Ducksalad [13]
10: Plant response rating, Blackgrass [7, 24]
60: Plant response rating, Galium [10, 24]
35: Plant response rating, Barnyardgrass [4]
20: Plant response rating, Barnyardgrass [9, 21] | Plant response rating, Galium [10, 23]
80: Plant response rating, Foxtail, Giant [2, 21]

O=C1NCC(c2cccc(I)c2)C1C(=O)Nc1ccccc1C(F)(F)F (stereo not shown) [Compound 328]
30: Plant response rating, Blackgrass [7, 23] | Plant response rating, Barnyardgrass [9, 19]
90: Foxtail, Giant plant response rating [2, 22]
35: Plant response rating, Ducksalad [13]
50: Plant response rating, Galium [10, 24]
40: Ryegrass, Italian plant response rating [1, 22] | Plant response rating, Blackgrass [7, 24] | Plant response rating, Barnyardgrass [9, 21]
0: Plant response rating, Ryegrass, Italian [1, 19] | Plant response rating, Ryegrass, Italian [1, 21] | Plant response rating, Wheat [3, 23] | Plant response rating, Wheat [3, 24] | Plant response rating, Barnyardgrass [4] | Plant response rating, Rice [5] | Plant response rating, Ragweed [6, 19] | Plant response rating, Ragweed [6, 20] | Plant response rating, Ragweed [6, 21] | Ragweed plant response rating [6, 22] | Plant response rating, Pigweed [8, 19] | Plant response rating, Pigweed [8, 20] | Plant response rating, Pigweed [8, 21] | Pigweed plant response rating [8, 22] | Plant response rating, Kochia [11, 19] | Plant response rating, Kochia [11, 21] | Plant response rating, Sedge, Umbrella [12] | Plant response rating, Corn [14, 23] | Plant response rating, Corn [14, 24]
70: Plant response rating, Foxtail, Giant [2, 19]
20: Plant response rating, Ryegrass, Italian [1, 20] | Plant response rating, Galium [10, 23] | Plant response rating, Kochia [11, 20] | Kochia plant response rating [11, 22]
80: Plant response rating, Foxtail, Giant [2, 20] | Plant response rating, Foxtail, Giant [2, 21] | Plant response rating, Barnyardgrass [9, 20] | Barnyardgrass plant response rating [9, 22]

O=C1NCC(c2cc3ccccc3o2)C1C(=O)Nc1cccc(F)c1F (stereo not shown) [Compound 282]
90: Plant response rating, Barnyardgrass [9, 20] | Plant response rating, Barnyardgrass [9, 17]
95: Plant response rating, Ducksalad [13]
70: Plant response rating, Foxtail, Giant [2, 17]
0: Plant response rating, Ryegrass, Italian [1, 19] | Plant response rating, Ryegrass, Italian [1, 20] | Plant response rating, Ryegrass, Italian [1, 21] | Plant response rating, Ryegrass, Italian [1, 17] | Plant response rating, Foxtail, Giant [2, 16] | Plant response rating, Wheat [3, 23] | Plant response rating, Wheat [3, 24] | Plant response rating, Rice [5] | Plant response rating, Ragweed [6, 19] | Plant response rating, Ragweed [6, 20] | Plant response rating, Ragweed [6, 21] | Plant response rating, Ragweed [6, 17] | Plant response rating, Blackgrass [7, 18] | Plant response rating, Pigweed [8, 19] | Plant response rating, Pigweed [8, 20] | Plant response rating, Pigweed [8, 21] | Plant response rating, Pigweed [8, 17] | Plant response rating, Galium [10, 18] | Plant response rating, Kochia [11, 16] | Plant response rating, Kochia [11, 20] | Plant response rating, Kochia [11, 21] | Plant response rating, Corn [14, 18] | Plant response rating, Corn [14, 24]
60: Plant response rating, Barnyardgrass [9, 21]
20: Plant response rating, Foxtail, Giant [2, 21] | Plant response rating, Blackgrass [7, 24]
50: Plant response rating, Barnyardgrass [9, 16] | Plant response rating, Kochia [11, 17]
40: Plant response rating, Galium [10, 24]
30: Plant response rating, Foxtail, Giant [2, 20] | Plant response rating, Barnyardgrass [4] | Plant response rating, Sedge, Umbrella [12]

O=C1NCC(c2cccc(Oc3ccccc3)c2)C1C(=O)Nc1ccccc1F (stereo not shown) [Compound 330]
60: Plant response rating, Barnyardgrass [9, 19] | Plant response rating, Barnyardgrass [9, 20] | Plant response rating, Barnyardgrass [9, 21]
40: Ryegrass, Italian plant response rating [1, 22]
20: Pigweed plant response rating [8, 22] | Plant response rating, Galium [10, 23] | Plant response rating, Kochia [11, 21] | Kochia plant response rating [11, 22]
70: Barnyardgrass plant response rating [9, 22]
0: Plant response rating, Ryegrass, Italian [1, 19] | Plant response rating, Ryegrass, Italian [1, 20] | Plant response rating, Wheat [3, 23] | Plant response rating, Wheat [3, 24] | Plant response rating, Barnyardgrass [4] | Plant response rating, Rice [5] | Plant response rating, Ragweed [6, 19] | Plant response rating, Ragweed [6, 20] | Plant response rating, Ragweed [6, 21] | Ragweed plant response rating [6, 22] | Plant response rating, Blackgrass [7, 23] | Plant response rating, Blackgrass [7, 24] | Plant response rating, Pigweed [8, 19] | Plant response rating, Pigweed [8, 20] | Plant response rating, Pigweed [8, 21] | Plant response rating, Kochia [11, 19] | Plant response rating, Kochia [11, 20] | Plant response rating, Sedge, Umbrella [12] | Plant response rating, Corn [14, 23] | Plant response rating, Corn [14, 24]
50: Plant response rating, Foxtail, Giant [2, 21]
80: Plant response rating, Foxtail, Giant [2, 19] | Plant response rating, Foxtail, Giant [2, 20] | Foxtail, Giant plant response rating [2, 22]
30: Plant response rating, Ryegrass, Italian [1, 21] | Plant response rating, Galium [10, 24]
100: Plant response rating, Ducksalad [13]

From patent US10294202B2, “Pyrrolidinones as herbicides” (FMC Corporation, priority 2013, dated 2019)
